Measured values published in US11773078B2, “Furin inhibitors” (Glaxosmithkline Intellectual Property Development Limited, priority 2018, dated 2023).
Structures can show the parent of a compound that is named as a salt.

Assays:
[1] = target: T1, furin (endogenous protease) in U20S cells (Homo sapiens, UniProt P09958); assay: Furin cell-based assay (image-based, Golgi-targeted GFP with BMP10 furin/PCSK cleavage site); conditions: 24-hour incubation, read-out: furin golgi cell pXC50 (converted);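 note: Read-out is mean GFP fluorescence of Golgi puncta per cell by high-content imaging, retained when furin inhibited, over an eleven-point 0.00017–10 µM series, four-parameter fit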
T1 construct: the endogenous protease cleaves GFP; endogenous in cells; host or cells: U2OS cells transduced with a BacMam reporter

[2] = target: T2, Furin (108-574-Tev-Flag-His) enzyme (Homo sapiens, UniProt P09958); assay: Furin enzyme assay; type: biochemical; conditions: for IC50: read-out: furin enzyme pIC50 (converted)
T2 construct: Furin (108-574-Tev-Flag-His) enzyme was expressed and purified from CHO cells; TEV cleavage site (C); FLAG (C); His (C); made in house; host or cells: CHO cells
How it was run: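 Compounds ran as 11-point threefold dilutions (0.00017–10 μM final) against 40 pM furin, purified from CHO cells, for 2 h at room temperature. Buffer: 100 mM HEPES pH7.5 with 1 mM CaCl2 and 0.005% Triton X-100. Envision readout. Four-parameter curve gives pXC50.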

T1 sequence (P09958 108-794): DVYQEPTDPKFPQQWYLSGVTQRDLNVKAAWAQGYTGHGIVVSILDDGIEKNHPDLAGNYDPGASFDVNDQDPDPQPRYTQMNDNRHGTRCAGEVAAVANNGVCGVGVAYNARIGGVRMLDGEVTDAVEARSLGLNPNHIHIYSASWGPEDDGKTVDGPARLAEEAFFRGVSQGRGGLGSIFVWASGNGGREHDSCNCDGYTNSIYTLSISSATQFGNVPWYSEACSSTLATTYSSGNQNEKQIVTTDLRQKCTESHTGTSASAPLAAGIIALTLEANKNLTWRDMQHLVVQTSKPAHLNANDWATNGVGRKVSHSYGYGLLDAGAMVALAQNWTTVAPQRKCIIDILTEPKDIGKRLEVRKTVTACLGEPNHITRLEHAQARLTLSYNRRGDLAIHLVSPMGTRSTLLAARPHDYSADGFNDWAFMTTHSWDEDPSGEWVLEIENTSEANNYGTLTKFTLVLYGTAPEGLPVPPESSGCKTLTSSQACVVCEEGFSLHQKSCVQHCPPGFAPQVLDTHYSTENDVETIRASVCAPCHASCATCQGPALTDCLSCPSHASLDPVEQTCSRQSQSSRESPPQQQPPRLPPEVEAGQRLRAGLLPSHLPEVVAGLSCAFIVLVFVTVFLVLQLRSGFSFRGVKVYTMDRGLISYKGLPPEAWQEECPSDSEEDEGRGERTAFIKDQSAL
T2 sequence (P09958 108-574): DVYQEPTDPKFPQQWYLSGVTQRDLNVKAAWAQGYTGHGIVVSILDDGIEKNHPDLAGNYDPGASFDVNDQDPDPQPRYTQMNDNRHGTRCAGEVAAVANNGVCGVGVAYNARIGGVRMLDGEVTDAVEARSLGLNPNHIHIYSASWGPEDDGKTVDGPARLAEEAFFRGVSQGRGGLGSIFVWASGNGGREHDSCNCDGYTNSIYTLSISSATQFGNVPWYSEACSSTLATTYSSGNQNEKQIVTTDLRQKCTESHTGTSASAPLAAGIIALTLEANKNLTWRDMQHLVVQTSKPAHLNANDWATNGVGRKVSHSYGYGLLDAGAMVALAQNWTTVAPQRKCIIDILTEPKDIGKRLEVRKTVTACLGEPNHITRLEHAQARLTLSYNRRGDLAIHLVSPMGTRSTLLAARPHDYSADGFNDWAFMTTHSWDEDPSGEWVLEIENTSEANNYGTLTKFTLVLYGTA

Row | EC50 [1] [µM] | furin enzyme pIC50 [2] | IC50 [2] [µM] | SMILES
1 | 3.16 | 8.6 |  | CNCc1cc(Oc2ccc(NCCCN)nc2)cc(-c2cc(Cl)cc(Cl)c2)c1 [Example 101, N^1-(5-((3′,5′-Dichloro-5-((methylamino)methyl)-[1,1′-biphenyl]-3-yl)oxy)pyridin-2-yl)propane-1,3-diamine]
2 | 0.0158 | 9.2 |  | CNCc1cc(Oc2ccc(N3CCNC(C)(C)C3)nc2)cc(-c2cc(Cl)cc(Cl)c2)c1 [Example 102, 1-(3′,5′-Dichloro-5-((6-(3,3-dimethylpiperazin-1-yl)pyridin-3-yl)oxy)-[1,1′-biphenyl]-3-yl)-N-methylmethanamine, 3 hydrochloride]
3 | 0.0631 | 8.9 |  | CNCc1cc(Oc2ccc(N3CCCNCC3)nc2)cc(-c2cc(Cl)cc(Cl)c2)c1 [Example 103]
4 | 0.0251 | 8.5 |  | CNCc1cc(Oc2ccc(N3CCN(C)CC3)nc2)cc(-c2cc(Cl)cc(Cl)c2)c1 [Example 104, 1-(3′,5′-dichloro-5-((6-(4-methylpiperazin-1-yl)pyridin-3-yl)oxy)-[1,1′-biphenyl]-3-yl)-N-methylmethanamine]
5 | 0.00501 | 9 |  | CC(=O)NCC1CCN(Cc2cc(Oc3ccc(N4CCN5C(=O)NCC5C4)nc3)cc(-c3cc(Cl)cc(Cl)c3)c2)CC1 (stereo not shown) [Example 107, N-((1-((3′,5′-Dichloro-5-((6-(3-oxohexahydroimidazo[1,5-a]pyrazin-7(1H)-yl)pyridin-3-yl)oxy)-[1,1′-biphenyl]-3-yl)methyl)piperidin-4-yl)methyl)acetamide, 2 hydrochloride]
6 | 0.0126 |  | < 0.000158 | CC(=O)NCC1CCN(Cc2cc(Oc3cnc(N4CCN(CCCO)CC4)nc3)cc(-c3cc(Cl)cc(Cl)c3)c2)CC1 [Example 113, N-((1-((3′,5′-Dichloro-5-((2-(4-(3-hydroxypropyl)piperazin-1-yl)pyrimidin-5-yl)oxy)-[1,1′-biphenyl]-3-yl)methyl)piperidin-4-yl)methyl)acetamide]
7 | 0.251 | 8.3 |  | CC(=O)NCC1CCN(Cc2cc(Oc3ccc(N4CCN(CCC(=O)O)CC4)nc3)nc(-c3cc(F)cc(Cl)c3)c2)CC1 [Example 115, 3-(4-(5-((4-((4-(Acetamidomethyl)piperidin-1-yl)methyl)-6-(3-chloro-5-fluorophenyl)pyridin-2-yl)oxy)pyridin-2-yl)piperazin-1-yl)propanoic acid]
8 | 0.2 | 10.4 |  | CC(=O)NCC1CCN(Cc2cc(Oc3ccc(N4CCN(CCC(=O)O)CC4)nc3)nc(-c3cc(F)cc(Br)c3)c2)CC1 [Example 116, 3-(4-(5-((4-((4-(Acetamidomethyl)piperidin-1-yl)methyl)-6-(3-bromo-5-fluorophenyl)pyridin-2-yl)oxy)pyridin-2-yl)piperazin-1-yl)propanoic acid]
9 | 0.0316 | 9.2 |  | CN1CCN(c2ncc(Oc3cc(CN4CCC(CC(=O)O)CC4)cc(-c4cc(Cl)cc(Cl)c4)c3)cn2)CC1 [Example 117, 2-(1-((3′,5′-Dichloro-5-((2-(4-methylpiperazin-1-yl)pyrimidin-5-yl)oxy)-[1,1′-biphenyl]-3-yl)methyl)piperidin-4-yl)acetic acid]
10 | 0.0794 | 8.5 |  | O=C(O)COC1CCN(Cc2cc(Oc3cnc(N4CCNCC4)nc3)nc(-c3cc(Cl)cc(Cl)c3)c2)CC1 [Example 122]

Continued, compound first:

Row | SMILES | EC50 [1] [µM] | furin enzyme pIC50 [2] | IC50 [2] [µM]
11 | CNCc1cc(Oc2ccc(N3CCNCC3)nc2)cc(-c2cc(Cl)cc(Cl)c2)c1 [Example 98, 1-(3′,5′-Dichloro-5-((6-(piperazin-1-yl)pyridin-3-yl)oxy)-[1,1′-biphenyl]-3-yl)-N-methylmethanamine, 3 hydrochloride] | 0.0398 | 8.7 | 
12 | NCCNc1ccc(Oc2cc(CN3CCOCC3)cc(-c3cc(Cl)cc(Cl)c3)c2)cn1 [Example 99, N^1-(5-((3′,5′-Dichloro-5-(morpholinomethyl))-[1,1′-biphenyl]-3-yl)oxy)pyridin-2-yl)ethane-1,2-diamine, 3 hydrochloride] | 0.251 | 7.2 | 
13 | CNCc1cc(Oc2ccc(N3CCC(N)CC3)nc2)cc(-c2cc(Cl)cc(Cl)c2)c1 [Example 100, 1-(5-((3′,5′-Dichloro-5-((methylamino)methyl)-[1,1′-biphenyl]-3-yl)oxy)pyridin-2-yl)piperidin-4-amine, 3 hydrochloride] | 0.0794 | 8.8 | 
14 | CC(=O)NCC1CCN(Cc2cc(Oc3ccc(NCC(C)(C)N)nc3)cc(-c3cc(Cl)cc(Cl)c3)c2)CC1 [Example 105, N-((1-((5-((6-((2-Amino-2-methylpropyl)amino)pyridin-3-yl)oxy)-3′,5′-dichloro-[1,1′-biphenyl]-3-yl)methyl)piperidin-4-yl)methyl)acetamide, 3 hydrochloride] | 0.126 | 9 | 
15 | CC(=O)NCC1CCN(Cc2cc(Oc3ccc(N4CC[C@@H](N)[C@@H](F)C4)nc3)cc(-c3cc(Cl)cc(Cl)c3)c2)CC1 [Example 106, N-((1-((5-((6-((r/3)-4-Amino-3-fluoropiperidin-1-yl)pyridin-3-yl)oxy)-3′,5′-dichloro-[1,1′-biphenyl]-3-yl)methyl)piperidin-4-yl)methyl)acetamide, 3 hydrochloride] | 0.00316 | 9.4 | 
16 | CNCc1cc(Oc2ccc(N3CCC(N)CC3)nc2)nc(-c2cc(C)cc(Cl)c2)c1 [Example 108, 1-(5-((6-(3-Chloro-5-methylphenyl)-4-((methylamino)methyl)pyridin-2-yl)oxy)pyridin-2-yl)piperidin-4-amine, 4 hydrochloride] | > 50.1 | 7.5 | 
17 | CC(=O)NCC1CCN(Cc2cc(Oc3cnc(N4CCNCC4)cn3)nc(-c3cc(Cl)cc(Cl)c3)c2)CC1 [Example 109, N-((1-((2-(3,5-Dichlorophenyl)-6-((5-(piperazin-1-yl)pyrazin-2-yl)oxy)pyridin-4-yl)methyl)piperidin-4-yl)methyl)acetamide] | 0.0158 | 9.6 | 
18 | CC(=O)NCC1CCN(Cc2cc(Oc3cnc(N4CCN(C)CC4)cn3)nc(-c3cc(Cl)cc(Cl)c3)c2)CC1 [Example 110, N-((1-((2-(3,5-Dichlorophenyl)-6-((5-(4-methylpiperazin-1-yl)pyrazin-2-yl)oxy)pyridin-4-yl)methyl)piperidin-4-yl)methyl)acetamide] | 0.00251 | 10.3 | 
19 | CC(=O)NCC1CCN(Cc2cc(Oc3cnc(N4CCN(CCC(=O)O)CC4)cn3)nc(-c3cc(Cl)cc(Cl)c3)c2)CC1 [Example 111, 3-(4-(5-((4-((4-(Acetamidomethyl)piperidin-1-yl)methyl)-6-(3,5-dichlorophenyl)pyridin-2-yl)oxy)pyrazin-2-yl)piperazin-1-yl)propanoic acid] | 0.158 | 9.7 | 
20 | O=C(O)CC1CCN(Cc2cc(Oc3cnc(N4CCNCC4)cn3)nc(-c3cc(Cl)cc(Cl)c3)c2)CC1 [Example 112, 2-(1-((2-(3,5-Dichlorophenyl)-6-((5-(piperazin-1-yl)pyrazin-2-yl)oxy)pyridin-4-yl)methyl)piperidin-4-yl)acetic acid] | 0.126 | 8.9 | 
21 | O=C(O)CCC1CCN(Cc2cc(Oc3cnc(N4CCN(CCO)CC4)nc3)cc(-c3cc(Cl)cc(Cl)c3)c2)CC1 [Example 114, 3-(1-((3′,5′-Dichloro-5-((2-(4-(2-hydroxyethyl)piperazin-1-yl)pyrimidin-5-yl)oxy)-[1,1′-biphenyl]-3-yl)methyl)piperidin-4-yl)propanoic acid] | 0.02 |  | < 0.000158
22 | CC(=O)NCC1CCN(Cc2cc(Oc3cnc(N4CCCNCC4)nc3)nc(-c3cc(Cl)cc(Cl)c3)c2)CC1 [Example 118, N-((1-((2-((2-(1,4-Diazepan-1-yl)pyrimidin-5-yl)oxy)-6-(3,5-dichlorophenyl)pyridin-4-yl)methyl)piperidin-4-yl)methyl)acetamide] | 0.0158 | 8.7 | 
23 | CC(=O)NCC1CCN(Cc2cc(Oc3cnc(N4CCC(N)CC4)nc3)nc(-c3cc(Cl)cc(Cl)c3)c2)CC1 [Example 119, N-((1-((2-((2-(4-aminopiperidin-1-yl)pyrimidin-5-yl)oxy)-6-(3,5-dichlorophenyl)pyridin-4-yl)methyl)piperidin-4-yl)methyl)acetamide] | 0.0251 | 9.3 | 
24 | C[N+](C)([O-])CCC1CCN(Cc2cc(Oc3ccc(N4CCNCC4)nc3)nc(-c3cc(Cl)cc(Cl)c3)c2)CC1 [Example 120, 2-(1-((2-(3,5-dichlorophenyl)-6-((6-(piperazin-1-yl)pyridin-3-yl)oxy)pyridin-4-yl)methyl)piperidin-4-yl)-N,N-dimethylethanamine oxide] | 0.0158 |  | 0.002
25 | CC(=O)NCC1CCN(Cc2cc(Oc3cnc(N4CCNCC4)c(F)c3)nc(-c3cc(Cl)cc(Cl)c3)c2)CC1 [Example 121, N-((1-((2-(3,5-dichlorophenyl)-6-((5-fluoro-6-(piperazin-1-yl)pyridin-3-yl)oxy)pyridin-4-yl)methyl)piperidin-4-yl)methyl)acetamide] | 0.0316 | 8.6 | 
26 | O=C(O)CC1CCN(Cc2cc(Oc3cnc(N4CCNCC(O)C4)nc3)nc(-c3cc(Cl)cc(Cl)c3)c2)CC1 (stereo not shown) [Example 123, 2-(1-((2-(3,5-dichlorophenyl)-6-((2-(6-hydroxy-1,4-diazepan-1-yl)pyrimidin-5-yl)oxy)pyridin-4-yl)methyl)piperidin-4-yl)acetic acid] | 0.1 | 8.7 | 
